pIC50: −log10 of the molar value. Where a name gives a salt, the structure may show the parent alone.
The molecules below were run against T1, mPGES-1 (Homo sapiens, UniProt O14684) (assay: mPGES-1 biological test (conversion of PGH2 to PGE2, HPLC read-out)). Details: mPGES-1 expressed in E. coli, membrane fraction; 25 min pre-incubation with inhibitor, 60 s with PGH2, room temperature; read-out: IC50 (inhibition of mPGES-1).
T1 construct: made in house; host or cells: E. coli
T1 sequence (O14684 1-152): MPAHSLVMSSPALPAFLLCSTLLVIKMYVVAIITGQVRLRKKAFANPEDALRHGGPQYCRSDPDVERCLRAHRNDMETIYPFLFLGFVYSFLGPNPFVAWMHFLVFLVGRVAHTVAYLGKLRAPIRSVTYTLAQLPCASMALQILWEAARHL
Format: biochemical
Protocol: In the assay mPGES-1 catalyses the reaction where the substrate PGH2 is converted to PGE2. mPGES-1 is expressed in E. coli and the membrane fraction is dissolved in 20 mM NaPi-buffer pH 8.0 and stored at −80° C. In the assay mPGES-1 is dissolved in 0.1M KPi-buffer pH 7.35 with 2.5 mM glutathione. The stop solution consists of H2O/MeCN (7/3), containing FeCl2 (25 mM) and HCl (0.15 M). The assay is performed at room temperature in 96-well plates. Analysis of the amount of PGE2 is performed with reversed phase HPLC (Waters 2795 equipped with a 3.9×150 mm C18 column). The mobile phase consists of H2O/MeCN (7/3), containing TFA (0.056%), and absorbance is measured at 195 nm with a Waters 2487 UV-detector.
The following is added chronologically to each well: • 1. 100 μL mPGES-1 in KPi-buffer with glutathione. Total protein concentration: 0.02 mg/mL. • 2. 1 μL inhibitor in DMSO. Incubation of the plate at room temperature for 25 minutes. • 3. 4 μL of a 0.25 mM PGH2 solution. Incubation of the plate at room temperature for 60 seconds. • 4. 100 μL stop solution. • 180 μL per sample is analyzed with HPLC.

| SMILES | pIC50 |
| --- | --- |
| CC(C)Oc1ccc(-n2c(C(=O)O)c(CN(C)C)c3cc(-c4ccc(C(C)(C)C)cc4)ccc32)cc1 [Example 8, 5-(4-tert-Butylphenyl)-3-dimethylaminomethyl-1-(4-isopropoxyphenyl)indole-2-carboxylic acid] | 6.25 |
| CC(C)Oc1ccc(-n2c(CC(=O)O)cc3cc(Oc4ccc(Cl)cc4)ccc32)cc1 [Example 32, [5-(4-Chlorophenoxy)-1-(4-isopropoxyphenyl)indol-2-yl]acetic acid] | 5.49 |

Further molecules by rising pIC50, results first:

| pIC50 | SMILES |
| --- | --- |
| 5.59 | CC(C)Oc1ccc(-n2c(C(=O)O)c(CN3CCOCC3)c3cc(-c4ccc(C(C)(C)C)cc4)ccc32)cc1 [Example 2, 5-(4-tert-Butylphenyl)-1-(4-isopropoxyphenyl)-3-morpholin-4-ylmethylindole-2-carboxylic acid] |
| 5.68 | CC(C)Oc1ccc(-n2c(C(=O)O)c(CNC(CO)CO)c3cc(-c4ccc(C(F)(F)F)cn4)ccc32)cc1 [Example 9, 3-[(1,3-dihydroxypropan-2-ylamino)methyl]-1-(4-isopropoxyphenyl)-5-(5-trifluoromethylpyridin-2-yl)indole-2-carboxylic acid dihydrochloride] |
| 6.11 | CC(C)(C)c1ccc(-c2ccc3c(c2)cc(CCC(=O)O)n3-c2ccc(OC3CCCC3)cc2)cc1 [Example 29, 3-[5-(4-tert-Butylphenyl)-1-(4-cyclopentyloxyphenyl)indol-2-yl]-propionic acid] |

— US20100197687A1, “Indoles Useful in the Treatment of Inflammation” (priority 2005, published 2010)
